Patent US20220411419A1, “SMALL MOLECULE MODULATORS OF MHC-I” (RetroVirox, Inc., priority 2018, published 2022)

Tests used:
[1] = tested on: downmodulation of MHC-I molecules expressed on the surface of HIV infected SupT1 cells; assay: cells; conditions: for EC50: Human immunodeficiency virus 1, SUP-T1, read-out: EC50 for inhibition of MHC-I downmodulation utilizing the R1 parameter; for activity at 100 µM: Human immunodeficiency virus 1, SUP-T1, read-out: R1 @ 100 μM (R1 value for MHC-I downmodulation as % of the vehicle control)
in vitro = conditions: human, uninfected SupT1 cells

Compound `COc1ccccc1OCC(=O)Nc1nc2cc(C)c(C)cc2s1` [Compound 191, N-(5,6-Dimethylbenzo[d]thiazol-2-yl)-2-(2-methoxyphenoxy)acetamide] has an EC50 [1] of over 25 µM, an activity at 100 µM [1] of 62% and a CC50 (in vitro) of over 100 µM. The CC50 at 48 h (in vitro) was over 100 µM.

In the case of `CC1(C)Cc2cccc(OCC(=O)Nc3nc4ccc(F)cc4s3)c2O1` [Compound 183, 2-((2,2-Dimethyl-2,3-dihydrobenzofuran-7-yl)oxy)-N-(6-fluorobenzo[d]thiazol-2-yl)acetamide], the EC50 [1] is reported as 4.2 µM and the CC50 at 48 h (in vitro) is reported as over 100 µM.

Work on `CC1(C)Cc2cccc(OCC(=O)Nc3nc4c(F)c(F)c(F)cc4s3)c2O1` [Compound 4, 2-((2,2-Dimethyl-2,3-dihydrobenzofuran-7-yl)oxy)-N-(4,5,6-trifluorobenzo [d]thiazol-2-yl)acetamide] yielded an EC50 [1] of 0.068 µM and a CC50 at 48 h (in vitro) of over 100 µM.

Work on `CC(C)(C)OC(=O)N1CCC(CNC(=O)c2cnc(NC(=O)COc3cccc4c3OC(C)(C)C4)s2)C1` (centres unmarked) [Compound 157, tert-Butyl 3-((2-(2-((2,2-dimethyl-2,3-dihydrobenzofuran-7-yl)oxy)acetamido)thiazole-5-carboxamido)methyl)pyrrolidine-1-carboxylate] yielded an EC50 [1] of over 25 µM, an activity at 100 µM [1] of at least 100% and a CC50 (in vitro) of over 90 µM. The CC50 at 48 h (in vitro) was over 90 µM.

`Cc1ccc(NC(=O)COc2cccc3c2OC(C)(C)C3)nn1` [Compound 2, 2-((2,2-Dimethyl-2,3-dihydrobenzofuran-7-yl)oxy)-N-(6-methylpyridazin-3-yl)acetamide] gave an EC50 [1] of 2.1 µM and a CC50 at 48 h (in vitro) of over 90 µM.

`COc1ccccc1OCC(=O)Nc1nc2c(F)cccc2s1` [Compound 192, N-(4-Fluorobenzo[d]thiazol-2-yl)-2-(2-methoxyphenoxy)acetamide] gave an EC50 [1] of 1.8 µM and a CC50 at 48 h (in vitro) of over 10 µM.

Work on `CC1(C)Cc2cccc(OCC(=O)Nc3nccc(C(F)(F)F)n3)c2O1` [Compound 28, 2-((2,2-Dimethyl-2,3-dihydrobenzofuran-7-yl)oxy)-N-(4-(trifluoromethyl)pyrimidin-2-yl)acetamide] yielded an EC50 [1] of over 25 µM, an activity at 100 µM [1] of 80% and a CC50 (in vitro) of over 100 µM. For the same compound, the CC50 at 48 h (in vitro) was over 100 µM.

For `CCCN(C(=O)COc1cccc2c1OC(C)(C)C2)c1nc2c(s1)CCCC2` [Compound 57, 2-((2,2-dimethyl-2,3-dihydrobenzofuran-7-yl)oxy)-N-propyl-N-(4,5,6,7-tetrahydrobenzo[d]thiazol-2-yl)acetamide], the EC50 [1] was 0.002 µM and the CC50 at 48 h (in vitro) was over 125 µM.

Compound `Cc1csc(N(Cc2cccnc2)C(=O)COc2cccc3c2OC(C)(C)C3)n1` [Compound 34, 2-((2,2-Dimethyl-2,3-dihydrobenzofuran-7-yl)oxy)-N-(4-methylthiazol-2-yl)-N-(pyridin-3-ylmethyl)acetamide] has an EC50 [1] of 1.4 µM and a CC50 at 48 h (in vitro) of 12 µM.

For `CC1(C)Cc2cccc(OCC(=O)Nc3nc4c(-c5ccncc5)cccc4s3)c2O1` [Compound 101, 2-((2,2-dimethyl-2,3-dihydrobenzofuran-7-yl)oxy)-N-(4-(pyridin-4-yl)benzo[d]thiazol-2-yl)acetamide], the EC50 [1] was over 25 µM, the activity at 100 µM [1] was 40% and the CC50 (in vitro) was over 100 µM. It also gave a CC50 at 48 h (in vitro) of over 100 µM.

For `CC1(C)Cc2cccc(OCC(=O)Nc3ccccn3)c2O1` [Compound 7, 2-((2,2-Dimethyl-2,3-dihydrobenzofuran-7-yl)oxy)-N-(pyridin-2-yl) acetamide], the EC50 [1] was over 25 µM, the activity at 100 µM [1] was 34% and the CC50 (in vitro) was over 100 µM. For the same compound, the CC50 at 48 h (in vitro) was over 100 µM.

`COc1c(Br)cccc1OCC(=O)N(C)c1nc2c(s1)CCCC2` [Compound 118, 2-(3-Bromo-2-methoxyphenoxy)-N-methyl-N-(4,5,6,7-tetrahydrobenzo[d]thiazol-2-yl)acetamide] gave an EC50 [1] of 2.1 µM and a CC50 at 48 h (in vitro) of over 125 µM.

In the case of `COc1c(OCC(=O)N(C)c2nc3c(s2)CCCC3)cccc1C1CC1` [Compound 120, 2-(3-Cyclopropyl-2-methoxyphenoxy)-N-methyl-N-(4,5,6,7-tetrahydrobenzo [d]thiazol-2-yl)acetamide], the EC50 [1] is reported as 4.8 µM and the CC50 at 48 h (in vitro) is reported as over 125 µM.

Compound `COc1cccc(C)c1OCC(=O)N(C)c1nc2c(s1)CCCC2` [Compound 116, 2-(2-Methoxy-6-methylphenoxy)-N-methyl-N-(4,5,6,7-tetrahydrobenzo[d]thiazol-2-yl)acetamide] has an EC50 [1] of 0.2 µM and a CC50 at 48 h (in vitro) of over 125 µM.

With `COc1ccccc1OCC(=O)Nc1nc2cc(F)ccc2s1` [Compound 196, N-(5-Fluorobenzo[d]thiazol-2-yl)-2-(2-methoxyphenoxy)acetamide] the EC50 [1] was over 25 µM, the activity at 100 µM [1] was 31% and the CC50 (in vitro) was over 100 µM. It also gave a CC50 at 48 h (in vitro) of over 100 µM.

`Cc1csc(N(C(=O)COc2cccc3c2OC(C)(C)C3)c2cnccn2)n1` [Compound 90] showed an EC50 [1] of over 25 µM, an activity at 100 µM [1] of 31% and a CC50 (in vitro) of over 100 µM. The CC50 at 48 h (in vitro) was over 100 µM.

Work on `COc1cccc(OCC(=O)N(C)c2nc3c(s2)CCCC3)c1` [Compound 121, 2-(3-Methoxyphenoxy)-N-methyl-N-(4,5,6,7-tetrahydrobenzo[d]thiazol-2-yl) acetamide] yielded an EC50 [1] of 3.9 µM and a CC50 at 48 h (in vitro) of over 125 µM.

Compound `Cc1csc(N(C(=O)COc2cccc3c2OC(C)(C)C3)c2ccc(F)cc2)n1` [Compound 58, 2-((2,2-Dimethyl-2,3-dihydrobenzofuran-7-yl)oxy)-N-(4-fluorophenyl)-N-(4-methylthiazol-2-yl)acetamide] has an EC50 [1] of 0.29 µM and a CC50 at 48 h (in vitro) of over 100 µM.

`CC1(C)Cc2cccc(OCC(=O)Nc3nc4c(-c5ccc[nH]5)cccc4s3)c2O1` [Compound 102, N-(4-(1H-Pyrrol-2-yl)benzo[d]thiazol-2-yl)-2-((2,2-dimethyl-2,3-dihydrobenzofuran-7-yl)oxy)acetamide] gave an EC50 [1] of over 25 µM, an activity at 100 µM [1] of 20% and a CC50 (in vitro) of over 100 µM. The CC50 at 48 h (in vitro) was over 100 µM.

Work on `Cc1ccc(NC(=O)COc2cccc3c2OC(C)(C)C3)cn1` [Compound 11, 2-((2,2-Dimethyl-2,3-dihydrobenzofuran-7-yl)oxy)-N-(6-methylpyridin-3-yl) acetamide] yielded an EC50 [1] of over 25 µM, an activity at 100 µM [1] of 48% and a CC50 (in vitro) of over 100 µM. For the same compound, the CC50 at 48 h (in vitro) was over 100 µM.

With `COc1ccccc1OCC(=O)Nc1nc2ccccc2s1` [Compound 187, N-(Benzo[d]thiazol-2-yl)-2-(2-methoxyphenoxy)acetamide] the EC50 [1] was at least 25 µM, the activity at 100 µM [1] was 45% and the CC50 (in vitro) was over 100 µM. It also gave a CC50 at 48 h (in vitro) of over 100 µM.

Compound `CC1(C)Cc2cccc(CCC(=O)N(Cc3ccccn3)c3nc4c(s3)CCCC4)c2O1` [Compound 104, 3-(2,2-Dimethyl-2,3-dihydrobenzofuran-7-yl)-N-(pyridin-2-ylmethyl)-N-(4,5,6,7-tetrahydrobenzo[d]thiazol-2-yl)propanamide] has an EC50 [1] of 1.1 µM and a CC50 at 48 h (in vitro) of over 125 µM.

`CC1(C)Cc2cccc(OCC(=O)Nc3nc4ccc(OC(F)(F)F)cc4s3)c2O1` [Compound 149, 2-((2,2-Dimethyl-2,3-dihydrobenzofuran-7-yl)oxy)-N-(6-(trifluoromethoxy)benzo[d]thiazol-2-yl)acetamide] showed an EC50 [1] of over 25 µM, an activity at 100 µM [1] of 27% and a CC50 (in vitro) of over 100 µM. It also gave a CC50 at 48 h (in vitro) of over 100 µM.

`Cc1csc(N(Cc2ccccc2)C(=O)COc2ccccc2OCc2ccccc2)n1` [Compound 142, N-Benzyl-2-(2-(benzyloxy)phenoxy)-N-(4-methylthiazol-2-yl)acetamide] gave an EC50 [1] of 5.5 µM and a CC50 at 48 h (in vitro) of over 125 µM.

`CC1(C)Cc2cccc(OCC(=O)Nc3cncc4ccccc34)c2O1` [Compound 10, 2-((2,2-Dimethyl-2,3-dihydrobenzofuran-7-yl)oxy)-N-(isoquinolin-4-yl) acetamide] gave an EC50 [1] of over 25 µM, an activity at 100 µM [1] of 46% and a CC50 (in vitro) of over 100 µM. It also gave a CC50 at 48 h (in vitro) of over 100 µM.

`Cc1csc(N(Cc2ccncc2)C(=O)COc2cccc3c2OC(C)(C)C3)n1` [Compound 35, 2-((2,2-Dimethyl-2,3-dihydrobenzofuran-7-yl)oxy)-N-(4-methylthiazol-2-yl)-N-(pyridin-4-ylmethyl)acetamide] gave an EC50 [1] of 1.42 µM and a CC50 at 48 h (in vitro) of over 100 µM.

For `CC1(C)Cc2cccc(OCC(=O)Nc3ccc4ccccc4n3)c2O1` [Compound 16, 2-((2,2-Dimethyl-2,3-dihydrobenzofuran-7-yl)oxy)-N-(quinolin-2-yl) acetamide], the EC50 [1] was 10 µM and the CC50 at 48 h (in vitro) was over 90 µM.

Compound `CC(C)c1ccc(NC(=O)COc2cccc3c2OC(C)(C)C3)nc1` [Compound 70, 2-((2,2-Dimethyl-2,3-dihydrobenzofuran-7-yl)oxy)-N-(5-isopropylpyridin-2-yl)acetamide] has an EC50 [1] of 0.89 µM and a CC50 at 48 h (in vitro) of over 125 µM.

Work on `C=Cc1ccc(N(C)C(=O)COc2cccc3c2OC(C)(C)C3)nn1` [Compound 82, 2-((2,2-Dimethyl-2,3-dihydrobenzofuran-7-yl)oxy)-N-methyl-N-(6-vinylpyridazin-3-yl)acetamide] yielded an EC50 [1] of 5.9 µM and a CC50 at 48 h (in vitro) of over 125 µM.

Work on `CC1(C)Cc2cccc(OCC(=O)N(Cc3ccccc3)c3nc4c(F)cccc4s3)c2O1` [Compound 32, N-Benzyl-2-((2,2-dimethyl-2,3-dihydrobenzofuran-7-yl)oxy)-N-(4-fluorobenzo[d]thiazol-2-yl)acetamide] yielded an EC50 [1] of 0.009 µM and a CC50 at 48 h (in vitro) of over 100 µM.

Work on `Cc1nc(NC(=O)C(C)(C)Oc2cccc3c2OC(C)(C)C3)sc1C` [Compound 19, 2-((2,2-Dimethyl-2,3-dihydrobenzofuran-7-yl)oxy)-N-(4,5-dimethylthiazol-2-yl)-2-methylpropanamide] yielded an EC50 [1] of over 30 µM, an activity at 100 µM [1] of 20% and a CC50 (in vitro) of over 90 µM. It also gave a CC50 at 48 h (in vitro) of over 90 µM.

Work on `CC1(C)Cc2cccc(OCC(=O)N(Cc3ccccc3)c3nc4c(s3)CCCC4)c2O1` [Compound 37, N-Benzyl-2-((2,2-dimethyl-2,3-dihydrobenzofuran-7-yl)oxy)-N-(4,5,6,7-tetrahydrobenzo[d]thiazol-2-yl)acetamide] yielded an EC50 [1] of 0.002 µM and a CC50 at 48 h (in vitro) of 0.15 µM.

`COc1c(C)cccc1OCC(=O)N(C)c1nc2c(s1)CCCC2` [Compound 119, 2-(2-Methoxy-3-methylphenoxy)-N-methyl-N-(4,5,6,7-tetrahydrobenzo[d]thiazol-2-yl)acetamide] gave an EC50 [1] of 0.78 µM and a CC50 at 48 h (in vitro) of over 125 µM.
